22 compounds from patent US7932262B2 (Novartis AG, priority 2006, dated 2011) can be followed below.

The target of one assay is T1, PDK1 kinase (Homo sapiens, UniProt O15530).
T1 sequence (O15530 1-556): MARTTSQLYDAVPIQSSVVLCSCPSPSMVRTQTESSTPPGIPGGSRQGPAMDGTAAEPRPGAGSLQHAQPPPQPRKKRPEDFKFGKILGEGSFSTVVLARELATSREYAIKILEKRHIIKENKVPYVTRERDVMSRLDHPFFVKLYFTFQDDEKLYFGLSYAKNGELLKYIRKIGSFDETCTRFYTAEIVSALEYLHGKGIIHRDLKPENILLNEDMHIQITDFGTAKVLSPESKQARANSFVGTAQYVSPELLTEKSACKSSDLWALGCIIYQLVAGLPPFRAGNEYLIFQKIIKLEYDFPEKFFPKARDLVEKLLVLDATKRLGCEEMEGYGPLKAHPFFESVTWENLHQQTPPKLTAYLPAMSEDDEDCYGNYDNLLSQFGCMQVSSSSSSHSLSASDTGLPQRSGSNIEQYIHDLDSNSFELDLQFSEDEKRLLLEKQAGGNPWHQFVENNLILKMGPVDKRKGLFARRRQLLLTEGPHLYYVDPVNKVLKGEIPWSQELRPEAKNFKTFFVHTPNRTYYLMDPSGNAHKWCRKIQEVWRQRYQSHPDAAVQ
The experiment in a line: PDK1 Kinase Alpha Screen Assay. Format: biochemical. The method in brief:
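PDK1, 10 uM ATP, 50 nM biotin-PDK1-4 peptide; 50 mM Tris pH 7.5, 10 mM MgCl2, 0.1% BSA, 0.01% Tween-20, 2 mM DTT, 2.5% DMSO; 3-18 h. EDTA stop; AlphaScreen, phospho-Ser/Thr antibody, overnight RT.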

A further assay concerns A2780 cells. The experiment in a line: Cell Proliferation Assay (Cell Titer Glo), A2780. Particulars: Homo sapiens, read-out: CPEC50 A2780. The assay is classed as cell-based. The method in brief: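 Following a 3-day compound exposure (37° C., 5% CO2) of A2780 or PC3MM cells plated at 1000 per well, viability was measured by Cell Titer Glo luminescence in fresh medium, read 10 min after reagent addition.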
Background: In ATP-based viability assays light output follows the ATP content of the culture.

Another assay concerns PC3MM cells. The experiment in a line: Cell Proliferation Assay (Cell Titer Glo), PC3MM. Particulars: read-out: CPEC50 PC3MM. Format: cell-based. The method, then: IV. Cell Proliferation Assay Protocol:
A2780, PC-3, or PC3MM cells were seeded at 1000 cells/well in 100 μL/well (10.000 cells/mL) growth media in 96-well plates. Cells were allowed to adhere to the bottom of plates for 3-5 hours in a 37° C. 5% CO2 incubator. Compounds were dissolved in DMSO and then transferred to the cell plates. The cells were incubated with the compounds for 3 days in a 37° C. 5% CO2 incubator. The growth medium containing the compounds was then removed from the cells and fresh medium was added, followed by 100 μL of Cell Titer Glo assay reagent (Promega). This mixture was shaken for 1 minute and then incubated without shaking for 10 minutes. Activity determinations for the compounds were made by detection on a Trilux Instrument.

Where [1] appears, read: PDK1 Kinase Alpha Screen Assay, read-out: PDK1 IC50.
[2] abbreviates: Cell Proliferation Assay, A2780.
[3] abbreviates: Cell Proliferation Assay, PC3MM.
[4] abbreviates: Cell Proliferation Assay, PC3MM cells.
Setting [5] is: cell proliferation, A2780 cells.
Setting [6] is: cell proliferation, PC3MM cells.

Read-outs that look alike come from different tables or passages of the source.

As to `c1cc(N2CCOCC2)ccc1Nc1ncc2cc(-c3cnoc3)c(OC3CCNCC3)cc2n1` [Compound 652, 6-(isoxazol-4-yl)-N-(4-morpholinophenyl)-7-(piperidin-4-yloxy)quinazolin-2-amine], the IC50 at PDK1 kinase (setting [1]) is less than 5 µM. The EC50 with A2780 cells (setting [2]) and in the assay with PC3MM cells (setting [3]) was less than 5 µM in each case.
As for `CN1CCC(Oc2cc3nc(Nc4ccc(N5CCOCC5)cc4)ncc3cc2-c2nccs2)CC1` [Compound 653, 7-(1-methylpiperidin-4-yloxy)-N-(4-morpholinophenyl)-6-(thiazol-2-yl)quinazolin-2-amine], the IC50 on PDK1 kinase (setting [1]) was less than 5 µM. Also, the EC50 with A2780 cells (setting [2]) and in the assay with PC3MM cells (setting [3]) was less than 5 µM each time.
For `CN1CCC(Oc2cc3nc(Nc4cc(C(N)=O)cc(N5CCOCC5)c4)ncc3cc2-c2nccs2)CC1` [Compound 678, 3-(7-(1-methylpiperidin-4-yloxy)-6-(thiazol-2-yl)quinazolin-2-ylamino)-5-morpholinobenzamide], the IC50 at PDK1 kinase (setting [1]) was less than 5 µM. The EC50 in the assay on PC3MM cells (setting [3]) is less than 5 µM.
As for `C#Cc1cc2cnc(Nc3cc(C(N)=O)cc(N4CCOCC4)c3)nc2cc1OC1CCNCC1` [Compound 679, 3-(6-ethynyl-7-(piperidin-4-yloxy)quinazolin-2-ylamino)-5-morpholinobenzamide], the IC50 at PDK1 kinase (setting [1]) was less than 5 µM. Moreover, the EC50 with PC3MM cells (setting [3]) lay within 5 to 10 µM.
Consider `NC(=O)c1cc(Nc2ncc3cc(-c4cnoc4)c(OC4CCNCC4)cc3n2)cc(N2CCOCC2)c1` [Compound 680, 3-(6-(isoxazol-4-yl)-7-(piperidin-4-yloxy)quinazolin-2-ylamino)-5-morpholinobenzamide], for which the IC50 on PDK1 kinase (setting [1]) was less than 5 µM. Also, the EC50 in the assay on PC3MM cells (setting [3]) lay in the range of 5 to 10 µM.
`CN1CCC(Oc2cc3nc(Nc4ccc5nc(C(F)(F)F)[nH]c5c4)ncc3cc2-c2nccs2)CC1` [Compound 681, 7-(1-methylpiperidin-4-yloxy)-6-(thiazol-2-yl)-N-(2-(trifluoromethyl)-1H-benzo[d]imidazol-6-yl)quinazolin-2-amine]: the IC50 on PDK1 kinase (setting [1]) is less than 5 µM. Also, in the assay on PC3MM cells (setting [3]), the EC50 lay within 5 to 10 µM.
The matching figures for `COc1cc(Nc2ncc3cc(-c4nccs4)c(OC4CCNCC4)cc3n2)cc(-n2nnnc2C)c1` [Compound 682, N-(3-methoxy-5 (5-methyl-1H-tetrazol-1-yl)phenyl)-7-(piperidin-4-yloxy)-6-(thiazol-2-yl)quinazolin-2-amine]: less than 5 µM and less than 5 µM.
For `CC(=O)N1CCC(Oc2cc3nc(Nc4ccc(N5CCOCC5)cc4)ncc3cc2-c2nccs2)CC1` [Compound 690, 1-(4-(2-(4-morpholinophenylamino)-6-(thiazol-2-yl)quinazolin-7-yloxy)piperidin-1-yl)ethanone] the same measures were less than 5 µM and less than 5 µM.
As for `COc1c(-c2cnn(CC(C)C)c2)ccc2cnc(Nc3cc(CN4CCOCC4)cc(NC(C)=O)c3)nc12` [Compound 715, N-(3-(7-(1-isobutyl-1H-pyrazol-4-yl)-8-methoxyquinazolin-2-ylamino)-5-(morpholinomethyl)phenyl)acetamide], the IC50 at PDK1 kinase (setting [1]) was less than 5 µM. Also, the EC50 in the assay on PC3MM cells (setting [4]) is less than 5 µM.
In the case of `COC(=O)Nc1cc(CN2CCOCC2)cc(Nc2ncc3ccc(-c4cnn(CCC(C)C)c4)c(OC)c3n2)c1` [Compound 716, methyl 3-(7-(1-isopentyl-1H-pyrazol-4-yl)-8-methoxyquinazolin-2-ylamino)-5-(morpholinomethyl)phenyl carbamate], on PDK1 kinase (setting [1]), the IC50 was less than 5 µM. The EC50 with PC3MM cells (setting [4]) was less than 5 µM.
For `NC(=O)c1ccc(Nc2ncc3cccc(OC4CCNCC4)c3n2)cc1` [Compound 717, 4-(8-(piperidin-4-yloxy)quinazolin-2-ylamino)benzamide], at PDK1 kinase (setting [1]), the IC50 was less than 5 µM. Also, the EC50 in the assay with A2780 cells (setting [5]) and in the assay with PC3MM cells (setting [6]) was less than 5 µM throughout.
As for `NS(=O)(=O)c1ccc(Nc2ncc3cccc(O[C@H]4CCNC4)c3n2)cc1` [Compound 721, (S)-4-(8-(pyrrolidin-3-yloxy)quinazolin-2-ylamino)benzenesulfonamide], on PDK1 kinase (setting [1]), the IC50 is less than 5 µM. The EC50 with A2780 cells (setting [5]) and in the assay with PC3MM cells (setting [6]) was less than 5 µM each time.
With `NS(=O)(=O)c1ccc(Nc2ncc3cccc(OC4CN5CCC4CC5)c3n2)cc1` (centres unmarked) [Compound 722, 4-(8-(quinuclidin-3-yloxy)quinazolin-2-ylamino)benzenesulfonamide], the IC50 at PDK1 kinase (setting [1]) was less than 5 µM. For the same compound, the EC50 in the assay with A2780 cells (setting [5]) and with PC3MM cells (setting [6]) was less than 5 µM throughout.
For `CN1CC[C@H](Oc2cccc3cnc(Nc4ccc(S(N)(=O)=O)cc4)nc23)C1` [Compound 723, (S)-4-(8-(1-methylpyrrolidin-3-yloxy)quinazolin-2-ylamino)benzenesulfonamide], the IC50 at PDK1 kinase (setting [1]) was less than 5 µM. The EC50 in the assay on A2780 cells (setting [5]) and in the assay on PC3MM cells (setting [6]) was less than 5 µM each time.
As to `CN1CCC(Oc2cccc3cnc(Nc4ccc(S(N)(=O)=O)cc4)nc23)CC1` [Compound 724, 4-(8-(1-methylpiperidin-4-yloxy)quinazolin-2-ylamino)benzenesulfonamide], the IC50 at PDK1 kinase (setting [1]) is less than 5 µM. Besides, the EC50 with A2780 cells (setting [5]) and in the assay on PC3MM cells (setting [6]) was less than 5 µM throughout.
Consider `NS(=O)(=O)c1ccc(Nc2ncc3cccc(O[C@@H]4CCNC4)c3n2)cc1` [Compound 726, (R)-4-(8-(pyrrolidin-3-yloxy)quinazolin-2-ylamino)benzenesulfonamide], for which the IC50 on PDK1 kinase (setting [1]) was less than 5 µM. Further, the EC50 in the assay on A2780 cells (setting [5]) and in the assay on PC3MM cells (setting [6]) was less than 5 µM throughout.
In the case of `CN1CC[C@@H](Oc2cccc3cnc(Nc4ccc(S(N)(=O)=O)cc4)nc23)C1` [Compound 727, (R)-4-(8-(1-methylpyrrolidin-3-yloxy)quinazolin-2-ylamino)benzenesulfonamide], the IC50 at PDK1 kinase (setting [1]) is less than 5 µM. Further, the EC50 in the assay with A2780 cells (setting [5]) and with PC3MM cells (setting [6]) was less than 5 µM in each case.
Take `NC(=O)c1ccccc1-c1ccc2cnc(Nc3ccc(S(N)(=O)=O)cc3)nc2c1` [Compound 784, 2-(2-(4-sulfamoylphenylamino)quinazolin-7-yl)benzamide]: the IC50 at PDK1 kinase (setting [1]) is less than 5 µM. Also, in the assay on PC3MM cells (setting [6]), the EC50 is less than 5 µM.
As to `CC(=O)Nc1cccc(-c2ccc3cnc(Nc4ccc(S(N)(=O)=O)cc4)nc3c2)c1` [Compound 785, N-(3-(2-(4-sulfamoylphenylamino)quinazolin-7-yl)phenyl)acetamide], at PDK1 kinase (setting [1]), the IC50 was 5 to 10 µM. The EC50 in the assay on PC3MM cells (setting [6]) was 5 to 10 µM.
Turning to `CS(=O)(=O)c1cccc(-c2ccc3cnc(Nc4ccc(S(N)(=O)=O)cc4)nc3c2)c1` [Compound 787, 4-(7-(3-(methylsulfonyl)phenyl)quinazolin-2-ylamino)benzenesulfonamide], the IC50 at PDK1 kinase (setting [1]) was less than 5 µM. Also, the EC50 in the assay with PC3MM cells (setting [6]) is less than 5 µM.
As for `CS(=O)(=O)Nc1cccc(-c2ccc3cnc(Nc4ccc(S(N)(=O)=O)cc4)nc3c2)c1` [Compound 788, 4-(7-(3-(methylsulfonamido)phenyl)quinazolin-2-ylamino)benzenesulfonamide], on PDK1 kinase (setting [1]), the IC50 fell in the range of 10 to 25 µM. Further, the EC50 with PC3MM cells (setting [6]) lay in the range of 10 to 25 µM.
Turning to `COC(=O)Nc1cc(CN2CCOCC2)cc(Nc2ncc3ccc(-c4cnn(CCC(C)C)c4)c(OC)c3n2)c1` [Compound 1042, methyl 3-(7-(1-isopentyl-1H-pyrazol-4-yl)-8-methoxyquinazolin-2-ylamino)-5-(morpholinomethyl)phenylcarbamate], the IC50 on PDK1 kinase (head of the second part of Table 4: BV11261, read-out: PDK1 BV11261) was less than 5 µM. Further, in the assay on PC3MM cells (PC3MM cells), the EC50 was less than 5 µM.
